Common to all, as to type: cell-based
Experiment [1] has as its target T1, NOX3/NOXO1/NOXA1 (Mus musculus, UniProt Q672J9, D161Y).
T1 construct: expressed in transfected cells
The experiment is described as follows: Superoxide production of HEK293 cells expressing NOX3/NOXO1/NOXA1 (luminol-amplified chemiluminescence). The procedure: (§1) HEK293 were maintained in Dulbecco's Modified Eagle's Medium/Ham's Nutrient Mixture F12 that was supplemented with 10% fetal calf serum, penicillin (100 units/ml), streptomycin (100 μg/ml), and 4 mmol/liter L-glutamine. NOX3-, NOXO1-, NOXA1-, p47^phox, and p67^phox cDNAs were subcloned into pcDNA3.1 (Invitrogen, Groningen, Netherlands) and transfected into HEK293 cells with the Effectene transfection system (Qiagen). To obtain stable clones, NOX3, NOXO1, NOXA1-transfected HEK293 cells were selected with 400 μg/ml G418 starting on the 2nd day after the transfection. After 14 days of selection, 24 surviving clones were tested for superoxide production. The positive clones were verified to express NOX3-, NOXO1-, and NOXA1 RNA by RT-RCR.
(§2) ROS generation was measured by the peroxidase-dependent luminol-amplified chemiluminescence technique (referred to as luminol-amplified chemiluminescence) in 96 well microplates using Luminometer Wallac 1420 Multilabel Counter (PerkinElmer Life Sciences). Measurements were performed in Hanks' balanced salt solution supplemented with 1 mg/ml D-glucose, 1 unit/ml horseradish peroxidase, and 250 μM luminol. In some experiments, phorbol ester (PMA) was added during the measurements to 100 nM final concentration. When the effect of cisplatin or 5-Fluorouracil (5-FU) was investigated, these compounds were pre-incubated with the cells for the indicated time and concentration in cell culture medium. Before ROS measurements, the cell culture medium was exchanged with the assay solution and chemiluminescence or absorption (see below) was measured at 37° C. After measurements cells were counted, and the results were normalized to 150,000 cells. Extracellular superoxide production was measured in 96-well microplates at 550 nm as the SOD-sensitive reduction of 100 μM ferricytochrome C (referred to as cytochrome C reduction technique). The O^−2 production was calculated using an absorption coefficient of 21.1 mM^−1 cm^−1 and normalized to 10^7 cells.

Experiment [2] has as its target T2, NOX3 (Mus musculus, UniProt Q672J9, D161Y).
T2 construct: expressed in transfected cells; host or cells: HEK293, transient transfection, pcDNA3.1
T2 sequence (Q672J9 1-568 D161Y): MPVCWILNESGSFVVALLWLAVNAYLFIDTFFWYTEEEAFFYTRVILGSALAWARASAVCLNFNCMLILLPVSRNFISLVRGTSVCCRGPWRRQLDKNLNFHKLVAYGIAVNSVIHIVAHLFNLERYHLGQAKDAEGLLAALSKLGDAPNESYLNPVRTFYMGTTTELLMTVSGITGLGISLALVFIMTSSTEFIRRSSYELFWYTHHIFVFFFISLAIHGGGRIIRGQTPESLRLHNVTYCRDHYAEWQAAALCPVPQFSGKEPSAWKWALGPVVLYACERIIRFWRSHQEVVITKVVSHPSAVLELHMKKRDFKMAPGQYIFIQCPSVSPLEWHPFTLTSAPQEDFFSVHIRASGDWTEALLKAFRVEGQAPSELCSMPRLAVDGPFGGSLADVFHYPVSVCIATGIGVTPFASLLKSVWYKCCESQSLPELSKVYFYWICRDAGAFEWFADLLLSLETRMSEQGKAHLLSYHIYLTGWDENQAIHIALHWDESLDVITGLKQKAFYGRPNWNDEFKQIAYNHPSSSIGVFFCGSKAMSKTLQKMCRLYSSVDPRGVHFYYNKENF
T2 sequence (P13498 1-195 partner): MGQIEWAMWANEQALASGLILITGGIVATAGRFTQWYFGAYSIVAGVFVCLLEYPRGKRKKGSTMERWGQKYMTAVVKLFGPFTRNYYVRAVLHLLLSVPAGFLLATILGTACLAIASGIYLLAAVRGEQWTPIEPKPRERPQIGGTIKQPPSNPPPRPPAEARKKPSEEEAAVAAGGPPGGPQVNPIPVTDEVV
The experiment is described as follows: Superoxide production of HEK293 cells transfected with NOX3 alone (luminol-amplified chemiluminescence / Diogenes / cytochrome C reduction). The procedure: as §1, §2

Experiment [3] addresses T3, NOX3, p47^phox, and p67^phox (Mus musculus, UniProt Q672J9, D161Y).
T3 construct: expressed in transfected cells; host or cells: HEK293, transient co-transfection, pcDNA3.1
T3 sequence (Q672J9 1-568 D161Y): T2 sequence (Q672J9 1-568 D161Y)
T3 sequence (P13498 1-195 partner): T2 sequence (P13498 1-195 partner)
As to the kind of experiment: Superoxide production of HEK293 cells co-transfected with NOX3, p47phox and p67phox. The procedure:
as §1, §2

In experiment [4] the test system is HEK293 cells transfected with control vector (pcDNA3.1). The experiment is described as follows: Superoxide production of HEK293 cells transfected with control vector. To be noted: control-transfected (pcDNA3.1) HEK293 cells, 20 μM cisplatin, 12 hours. The procedure: as §1, with “The positive clones were verified to express NOX3-, NOXO1-, and NOXA1 RNA by RT-RCR.” left out
(§3) ROS generation was measured by the peroxidase-dependent luminol-amplified chemiluminescence technique (referred to as luminol-amplified chemiluminescence) in 96 well microplates using Luminometer Wallac 1420 Multilabel Counter (PerkinElmer Life Sciences). […] Before ROS measurements, the cell culture medium was exchanged with the assay solution and chemiluminescence or absorption (see below) was measured at 37° C. After measurements cells were counted, and the results were normalized to 150,000 cells. Extracellular superoxide production was measured in 96-well microplates at 550 nm as the SOD-sensitive reduction of 100 μM ferricytochrome C (referred to as cytochrome C reduction technique). […]

Experiment [5] addresses T4, NOXO1, p67^phox, and NOX3 (Mus musculus, UniProt Q672J9, D161Y).
T4 construct: expressed in transfected cells; host or cells: HEK293, transient co-transfection, pcDNA3.1
The experiment is described as follows: Superoxide production of HEK293 cells expressing NOXO1, p67phox and NOX3. To be noted: 100 nM PMA. The procedure: as §1, with “The positive clones were verified to express NOX3-, NOXO1-, and NOXA1 RNA by RT-RCR.” left out
as §3

The target of experiment [6] is T5, p47^phox, NOXA1, and NOX3 (Mus musculus, UniProt Q672J9, D161Y).
T5 construct: expressed in transfected cells; host or cells: HEK293, transient co-transfection, pcDNA3.1
T5 sequence (Q672J9 1-568 D161Y): T2 sequence (Q672J9 1-568 D161Y)
T5 sequence (P13498 1-195 partner): T2 sequence (P13498 1-195 partner)
As to the kind of experiment: Superoxide production of HEK293 cells expressing p47phox, NOXA1 and NOX3. To be noted: 100 nM PMA. The procedure: as §1, with “The positive clones were verified to express NOX3-, NOXO1-, and NOXA1 RNA by RT-RCR.” left out
as §3

[7] abbreviates: stable clone, 12 hours incubation.

As a reminder, the EC50 is the concentration that produces a half-maximal response.

T1 sequence (Q8NFA2 whole entry partner, one chain of several): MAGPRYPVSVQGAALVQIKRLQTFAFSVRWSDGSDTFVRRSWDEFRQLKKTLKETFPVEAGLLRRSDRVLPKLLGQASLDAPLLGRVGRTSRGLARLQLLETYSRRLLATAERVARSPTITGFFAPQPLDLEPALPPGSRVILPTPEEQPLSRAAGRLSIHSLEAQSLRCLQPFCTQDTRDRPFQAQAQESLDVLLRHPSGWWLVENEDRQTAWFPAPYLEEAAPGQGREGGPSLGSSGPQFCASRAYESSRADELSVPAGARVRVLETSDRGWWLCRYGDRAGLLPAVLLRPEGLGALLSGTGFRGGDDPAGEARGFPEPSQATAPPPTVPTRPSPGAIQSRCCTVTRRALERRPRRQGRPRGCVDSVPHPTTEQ
T1 sequence (Q86UR1 whole entry partner, one chain of several): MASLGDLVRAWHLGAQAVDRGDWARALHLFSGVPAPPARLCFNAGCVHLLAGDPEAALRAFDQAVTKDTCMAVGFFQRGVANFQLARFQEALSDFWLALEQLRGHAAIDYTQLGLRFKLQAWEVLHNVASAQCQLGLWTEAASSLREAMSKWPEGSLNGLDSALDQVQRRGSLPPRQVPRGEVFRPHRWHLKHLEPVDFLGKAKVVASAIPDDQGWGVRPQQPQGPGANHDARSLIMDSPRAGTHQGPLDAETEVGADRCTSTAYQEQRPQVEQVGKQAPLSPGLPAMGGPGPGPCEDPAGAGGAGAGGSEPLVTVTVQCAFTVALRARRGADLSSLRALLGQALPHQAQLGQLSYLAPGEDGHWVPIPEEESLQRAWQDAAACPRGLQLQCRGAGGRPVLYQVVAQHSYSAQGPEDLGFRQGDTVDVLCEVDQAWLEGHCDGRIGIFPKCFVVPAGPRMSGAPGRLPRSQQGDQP
T4 sequence (Q8NFA2 whole entry partner, one chain of several): as the sequence (Q8NFA2 whole entry partner, one chain of several) above
T4 sequence (P19878 whole entry partner, one chain of several): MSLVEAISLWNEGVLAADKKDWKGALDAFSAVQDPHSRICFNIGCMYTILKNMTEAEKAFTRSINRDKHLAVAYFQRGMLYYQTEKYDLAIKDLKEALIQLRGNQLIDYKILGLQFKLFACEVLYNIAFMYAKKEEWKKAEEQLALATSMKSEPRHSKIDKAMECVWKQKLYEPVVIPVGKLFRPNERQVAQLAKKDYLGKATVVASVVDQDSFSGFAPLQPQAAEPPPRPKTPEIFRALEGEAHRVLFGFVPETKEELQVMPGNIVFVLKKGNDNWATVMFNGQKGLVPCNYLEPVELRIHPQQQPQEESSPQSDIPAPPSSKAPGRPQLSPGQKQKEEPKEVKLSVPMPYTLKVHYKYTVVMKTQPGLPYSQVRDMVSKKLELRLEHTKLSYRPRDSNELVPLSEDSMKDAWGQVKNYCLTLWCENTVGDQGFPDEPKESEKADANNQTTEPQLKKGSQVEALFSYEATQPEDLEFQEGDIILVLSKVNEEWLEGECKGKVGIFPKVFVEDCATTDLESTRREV

As to `O=c1[nH]cc(F)c(=O)[nH]1` [5-fluorouracil, 5-Fluorouracil], in experiment [1] (100 μM, 17 hours, data not shown), the “effect of 5-fluorouracil on superoxide production” value is reported as “did not influence superoxide production”.

As to `N.N.[Cl][Pt][Cl]` [Cisplatin], the “effect of cisplatin on superoxide production” value (“effect of cisplatin” below) in experiment [2] (NOX3-transfected HEK293 cells, 20 μM cisplatin, 12 hours, before PMA addition) was “elicited superoxide production”. The “effect of cisplatin” value in experiment [1] (stable HEK293 clones, 20 μM cisplatin, 12 hours) is “marked increase of superoxide production”. Moreover, in experiment [1] (stable clone, 20 μM cisplatin), the “t50 of NOX3 activation” value came out at 11.5 ± 1.7 h, the “treatment time at which NOX3 activity is already enhanced” value is 5 h and the “treatment time to maximal effect” value is listed as “around 17 hours”. For the same molecule, in experiment [1] (setting [7]), the “concentration at which NOX3-dependent ROS generation is already increased” value turned out to be 1 µM and the “concentration with maximal effect on NOX3-dependent ROS generation” value came out at 20 µM. Besides, the EC50 in experiment [1] (stable clone, 12 hours incubation, read-out: EC50 of NOX3 activation) stood at 3.6 µM. Moreover, the “factor of enhancement of superoxide production” value in experiment [3] (20 μM cisplatin, 12 hours) was “approximately 3.3”. In addition, the “effect of cisplatin” value in experiment [4] is “not in control-transfected cells”.

Turning to `c1ccc2c(c1)[I+]c1ccccc1-2` [DPI, diphenylene iodonium], the “effect of DPI on superoxide generation” value in experiment [2] (NOX3-transfected HEK293 cells, cisplatin and PMA treated, 5 μM DPI) was “blocked it completely”; in experiment [1] (stable HEK293 clones, with or without cisplatin, 5 μM DPI), “abolished”. For the same molecule, in experiment [3] (cisplatin-treated cells, 5 μM DPI, not shown), the “effect of DPI on superoxide production” value was “blocked”.

Regarding `CCCCCCCCCCCCCC(=O)O[C@@H]1[C@@H](C)[C@@]2(O)[C@@H](C=C(CO)C[C@]3(O)C(=O)C(C)=C[C@@H]23)[C@@H]2C(C)(C)[C@]12OC(C)=O` [PMA, phorbol 12-myristate 13-acetate], in experiment [2] (NOX3-transfected HEK293 cells pre-incubated with 20 μM cisplatin, 100 nM PMA), the “effect of PMA on superoxide generation after cisplatin” value is recorded as “further increased superoxide generation”. Further, in experiment [2] (NOX3-transfected HEK293 cells, no other subunits, 100 nM PMA), the “superoxide generation in the presence of PMA” value is given as “low amounts of superoxide”. For the same molecule, the “effect of PMA on superoxide generation” value is “insensitive to PMA” in experiment [1] (NOX3/NOXO1/NOXA1 HEK293 cells, 100 nM PMA) and “could not be further enhanced by PMA” in experiment [5]. Besides, in experiment [3] (100 nM PMA), the “effect of PMA on NOX3 activity” value was “strong enhancement of NOX3 activity”. In experiment [6], the “effect of PMA on superoxide production” value was “largely PMA-dependent”.
